Measured values published in patent US4009181A, “Cyclopenta[b]indole-2-carboxylic acids and derivatives thereof” (Hoffmann-La Roche Inc., priority 1974, dated 1977).

Columns and labels:
[1] = LD50 p.o. in mice (acute toxicity); format: in vivo
[2] = antipyretic activity: Brewer's yeast foot injection, foot and rectal temperatures; format: in vivo, male rats; details: rats; 200 mg/kg.
Experimental: Control animals are given 1 cc/100 g. body weight of the vehicle. The test drug animals are given 200 mg/kg. of the drug in a concentration of 2 percent. Soluble and insoluble compounds are administered orally in aqueous suspended vehicle. One hour after administration of drug, these rats are injected with 0.1 ml. of a 2 percent suspension of Brewer's yeast beneath the plantar surface of the foot. Two hours after drug injections and 1 hour after the irritant, the temperatures of the inflammed foot, the normal foot and the rectum are recorded with the help of a thermocouple. Results are reported as degrees change from controls. The temperatures are averaged for the inflamed foot, the normal foot and the rectum. The averages for the treated groups are compared with the control averages and the results noted as degrees change from control.

[3] = analgesic activity: hot plate reaction time; format: in vivo, male mice; details: mice; dose ranging from 38 mg. to about 220 mg.
Experimental: The method determines the reaction time of mice dropped onto a hot plate maintained at 55±0.5° C. Six groups of male mice (5 mice/group) weighing between 20-30 grams are utilized. The initial reaction time of these mice is determined once, and the reaction time of each group is then averaged. The mice are then administered the vehicle and/or the compound to be tested by the oral, intraperitoneal or subcutaneous route. The average reaction time of each group is determined again at 30, 60 and 90 minutes after compound administration and is compared to controls. Reaction time is recorded as percent changes from control. All groups are averaged before and after treatment. A combined reaction time average (recorded as percent change of reaction time threshhold from controls) for all three periods is plotted against dose on graph paper, and a curve is drawn. The ED 50 is read from this curve.

SMILES: O=C(O)C1CCc2c([nH]c3ccc(Cl)cc23)C1 (stereo not drawn) [6-chloro-1,2,3,4-tetrahydrocarbazole-2-carboxylic acid]
- LD50 [1]: 1120 mg
- antipyretic activity [2]: antipyretic activity is observed
- analgesic activity [3]: analgesic activity is observed
